# Data published in patent US20240382564A1, “Methods and Compositions for Treating Muscular Dystrophy and Memory Impairment” (Allysta Pharmaceuticals, Inc., priority 2023, published 2024).
# “Also recorded” adds a separate entry of the source. Where no end group is shown, it is not given here. [ ]: non-standard residue; d: D form. Nva = CCC[C@H](N)C(=O)O
# Columns and labels:
# D2.mdx mice [1] = experiment: Mitochondrial calcium retention capacity; format: in vivo, mouse; details: between groups
# Protocol: D2.mdx mice were treated with ALY688 at two different dosages; high dose (HD; 15 mg/kg body weight/day) or low dose (LD; 3 mg/kg body weight/day) dissolved in saline. A separate group of mice were treated with saline alone (VEH, vehicle). Treatment was provided via subscapular subcutaneous injections from 7 days of age to 28-30 days. […] At 28-30 days of age, mice were anaesthetized with isoflurane vaporized in medical air (21% oxygen) at a 2 L/min flow rate. Due to tissue limitations in limb muscle, certain measures were performed separately in tibialis anterior and quadriceps across several phases of breeding. […]
# This assay was measured spectrofluorometrically (QuantaMaster 80, HORIBA Scientific) in a cuvette with 300 μL assay buffer containing 1 μM Calcium Green-5N (Invitrogen), 2 μM thapsigargin, 5 μM blebbistatin, and 40 μM EGTA while maintained at 37° C. with continuous stirring. 5 mM glutamate, 2 mM malate, 5 mM ADP and 20 mM creatine were added to the assay buffer and minimum fluorescence was recorded. 4 nmol pulses of CaCl2 were added until the mitochondrial permeability transition pore (mPTP) opening was observed as an increase in fluorescence corresponding to net mitochondrial calcium release, at which point saturating pulses of CaCl2 were used to establish maximum fluorescence. […]
# D2.mdx mice [2] = experiment: Novel object recognition test; format: in vivo, mouse; details: 15 mg/kg b.w. daily, days 7 to 28 of age
# Protocol: Male D2.mdx mice originated from a colony maintained at York University (Toronto, Canada) and sourced from Jackson Laboratories (Stock Number 013141, Bar Harbor, United States). Mice were treated daily from days 7 to 28 of age with ALY688 at 15 mg/kg b.w. (D2.mdx-ALY688) or saline control (D2.mdx-VEH). This age was chosen given it captures an early stage of disease progression in cardiac and skeletal muscle. Mice were sacrificed 20-24 hr after the last dose. Breeding of wildtype mice was unsuccessful. Instead, three-week-old wildtype DBA/2J WT mice (D2A) were obtained from Jackson Laboratories (Stock number 000671, Bar Harbor, United States) and allowed to acclimatize for one week before sacrifice. Mice were housed in standard 12:12-hr light:dark cycles and were allowed access to standard rodent chow and water ad libitum. 4 days prior to sacrifice, all groups underwent novel object recognition acclimatization and testing as described below. Mice were anesthetized under 5% isoflurane vaporized in medical air (21% oxygen) at a flow rate of 2 L/min and then maintained at 2-3% prior to euthanasia by exsanguination. […]
# The novel object recognition test (NOR) was performed as previously described in literature. […] Sessions were recorded with a cell-phone video camera secured above the apparatus. […] Discrimination ratio (DR) was calculated as follows: DR=(Time(object 2)−Time(object 1))/Total time.
substance,measurement,setting,value
[dN]IP[Nva]LY[dS]FA[dS]-NH2 [ALY688],mitochondrial calcium retention capacity,D2.mdx mice [1],no differences between groups
same,"recognition memory (discrimination index, NOR test)",D2.mdx mice [2],completely prevented; also recorded: improved recognition memory; also recorded: normalized
